The molecules below were run against T1, human LPA1 (Homo sapiens, UniProt Q92633) (assay: LPA1 functional antagonist assay (LPA-induced calcium flux)). Conditions: CHO cells overexpressing human LPA1; calcium flux induced by 10 nM LPA; read-out: hLPA1 IC50.
T1 construct: expressed in transfected cells; host or cells: Chinese hamster ovary (CHO) cells
Type: cell-based
Procedure: The effectiveness of compounds of the present invention as LPA1 inhibitors can be determined in an LPA1 functional antagonist assay as follows:
The cells were then equilibrated to room temperature for 30 minutes before the assay. […] IC50 values were determined by fitting data to a 4-parameter logistic equation (GraphPad Prism, San Diego CA).

T1 sequence (Q92633 whole entry): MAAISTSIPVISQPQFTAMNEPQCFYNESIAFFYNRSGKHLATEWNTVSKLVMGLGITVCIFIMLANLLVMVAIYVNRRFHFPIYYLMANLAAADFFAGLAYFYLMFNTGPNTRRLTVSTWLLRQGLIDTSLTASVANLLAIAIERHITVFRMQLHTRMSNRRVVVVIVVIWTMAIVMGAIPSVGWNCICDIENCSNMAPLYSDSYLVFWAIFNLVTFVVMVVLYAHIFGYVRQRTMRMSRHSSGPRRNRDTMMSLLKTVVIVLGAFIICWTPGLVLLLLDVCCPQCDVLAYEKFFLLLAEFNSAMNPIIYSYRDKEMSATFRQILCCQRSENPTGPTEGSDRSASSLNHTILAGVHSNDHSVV

IC50 [nM]	Compound
435	Cc1nc(-c2nnn(C)c2COC(=O)NC2CCCCC2)ccc1OC[C@@H]1CC[C@H]1C(=O)O (racemic) [Example 45, (±)-(1R,2R)-2-(((6-(5-(((cyclohexylcarbamoyl)oxy)methyl)-1-methyl-1H-1,2,3-triazol-4-yl)-2-methyl-pyridin-3-yl)oxy)methyl)cyclobutane-1-carboxylic acid]
275	CCCN(C)C(=O)OCc1c(-c2ccc(OC[C@@H]3CC[C@H]3C(=O)O)c(C)n2)nnn1C (racemic) [Example 46]
23	Cc1nc(-c2nnn(C)c2COC(=O)N(C)C2CCCC2)ccc1OC[C@@H]1CC[C@H]1C(=O)O (racemic) [Example 47, (±)-(1R,2R)-2-(((6-(5-(((cyclopentyl(methyl)carbamoyl)oxy)methyl)-1-methyl-1H-1,2,3-triazol-4-yl)-2-methyl-pyridin-3-yl)oxy)methyl)cyclobutane carboxylic acid]
72	Cc1nc(-c2nnn(C)c2COC(=O)N(C)C2CCC2)ccc1OC[C@@H]1CC[C@H]1C(=O)O (racemic) [Example 48, (±)-(1R,2R)-2-(((6-(5-(((cyclobutyl(methyl)carbamoyl)oxy)methyl)-1-methyl-1H-1,2,3-triazol-4-yl)-2-methylpyridin-3-yl)oxy)methyl)cyclobutanecarboxylic acid]
232	Cc1nc(-c2nnn(C)c2COC(=O)N(C)CC(C)C)ccc1OC[C@@H]1CC[C@H]1C(=O)O (racemic) [Example 49, (±)-(1R,2R)-2-(((6-(5-(((isobutyl(methyl)carbamoyl)oxy)methyl)-1-methyl-1H-1,2,3-triazol-4-yl)-2-methylpyridin-3-yl)oxy)methyl)cyclobutanecarboxylic acid]
22	CCCCN(C)C(=O)OCc1c(-c2ccc(OC[C@@H]3CC[C@H]3C(=O)O)c(C)n2)nnn1C (racemic) [Example 50, (±)-(1R,2R)-2-(((6-(5-(((butyl(methyl)carbamoyl)oxy)methyl)-1-methyl-1H-1,2,3-triazol-4-yl)-2-methylpyridin-3-yl)oxy)methyl)cyclobutanecarboxylic acid]
586	CCC(C)Cc1nc(NCc2c(-c3ccc(OCC45CC(C(=O)O)(C4)C5)c(C)n3)nnn2C)no1 (racemic) [Example 56, (±)-3-(((2-methyl-6-(1-methyl-5-(((5-(2-methylbutyl)-1,2,4-oxadiazol-3-yl)amino)methyl)-1H-1,2,3-triazol-4-yl)pyridin-3-yl)oxy)methyl)bicyclo[1.1.1]pentane-1-carboxylic acid]
3590	Cc1nc(-c2nnn(C)c2NC(=O)OCC2CC2)ccc1OC[C@H]1CC[C@@H]1C(=O)O (racemic) [Example 59, (±)-(1S,2S)-2-(((6-(5-(((cyclopropyl-methoxy)carbonyl)amino)-1-methyl-1H-1,2,3-triazol-4-yl)-2-methyl-pyridin-3-yl)oxy)methyl)cyclobutane-1-carboxylic acid]
1160	Cc1nc(-c2nnn(C)c2CNc2noc(CC3CC3)n2)ccc1OC[C@H]1CC[C@@H]1C(=O)O (racemic) [Example 60, (±)-(1S,2S)-2-(((6-(5-(((5-(Cyclopropylmethyl)-1,2,4-oxadiazol-3-yl)amino)methyl)-1-methyl-1H-1,2,3-triazol-4-yl)-2-methylpyridin-3-yl)oxy)methyl) cyclobutane-1-carboxylic acid]
7	Cc1noc(-c2ccc(OC[C@@H]3CC[C@H]3C(=O)O)cn2)c1CNc1nccc(-c2ccccn2)n1 (single isomer, unassigned) [Example 3]
14	Cc1noc(-c2ccc(OC[C@H]3CC[C@@H]3C(=O)O)cn2)c1CNc1nccc(-c2ccccn2)n1 (single isomer, unassigned) [Example 4]
26	Cc1nc(-c2nnn(C)c2COC(=O)N(C)CC2CCC2)ccc1OC[C@@H]1CC[C@H]1C(=O)O (single isomer, unassigned) [Example 7]
6	Cc1nc(-c2nnn(C)c2COC(=O)N(C)CC2CCC2)ccc1OC[C@H]1CC[C@@H]1C(=O)O (single isomer, unassigned) [Example 8]
77	CCc1cc(OCc2c(-c3ccc(OC[C@@H]4CC[C@H]4C(=O)O)c(C)n3)nnn2C)ncn1 (single isomer, unassigned) [Example 12]
28	CCc1cc(OCc2c(-c3ccc(OC[C@H]4CC[C@@H]4C(=O)O)c(C)n3)nnn2C)ncn1 (single isomer, unassigned) [Example 13]
1150	Cc1nc(-c2nnn(C)c2CNc2nccc(C(C)C)n2)ccc1OC[C@@H]1CC[C@H]1C(=O)O (single isomer, unassigned) [Example 24]
51	Cc1nc(-c2nnn(C)c2CNc2nccc(C(C)C)n2)ccc1OC[C@H]1CC[C@@H]1C(=O)O (single isomer, unassigned) [Example 25]
67	Cn1nnc(-c2ccc(OC[C@@H]3CC[C@H]3C(=O)O)cn2)c1CNc1nccc(-c2ccccn2)n1 (single isomer, unassigned) [Example 28]
186	Cn1nnc(-c2ccc(OC[C@H]3CC[C@@H]3C(=O)O)cn2)c1CNc1nccc(-c2ccccn2)n1 (single isomer, unassigned) [Example 29]
63	Cc1nc(-c2nnn(C)c2Cn2nnc(CC3CC3)n2)ccc1OC[C@@H]1CC[C@H]1C(=O)O (single isomer, unassigned) [Example 38]
250	Cc1nc(-c2nnn(C)c2Cn2nnc(CC3CC3)n2)ccc1OC[C@H]1CC[C@@H]1C(=O)O (single isomer, unassigned) [Example 39]
278	Cc1nc(-c2nnn(C)c2COC(=O)N(C)CC2CCC2)ccc1O[C@H]1C[C@H](C(=O)O)C1 [Example 9, trans-3-((6-(5-((((cyclobutylmethyl)(methyl)carbamoyl)oxy)methyl)-1-methyl-1H-1,2,3-triazol-4-yl)-2-methylpyridin-3-yl)oxy)cyclobutane-1-carboxylic acid]
789	Cc1nc(-c2nnn(C)c2COC(=O)N(C)CC2CCC2)ccc1O[C@H]1C[C@@H](C(=O)O)C1 [Example 10, cis-3-((6-(5-((((cyclobutylmethyl)(methyl)carbamoyl)oxy)methyl)-1-methyl-1H-1,2,3-triazol-4-yl)-2-methylpyridin-3-yl)oxy)cyclobutane-1-carboxylic acid]

Compound	IC50 [nM]
CCCCOC(=O)NCc1c(-c2ccc(OC[C@@H]3CC[C@H]3C(=O)O)c(C)n2)nnn1C (racemic) [Example 42, (±)-(1R,2R)-2-(((6-(5-(((butoxy-carbonyl)amino)methyl)-1-methyl-1H-1,2,3-triazol-4-yl)-2-methyl-pyridin-3-yl)oxy)methyl)cyclobutanecarboxylic acid]	649
CC[C@H](C)COC(=O)NCc1c(-c2ccc(OC[C@@H]3CC[C@H]3C(=O)O)c(C)n2)nnn1C (racemic) [Example 43, (±)-(1R,2R)-2-(((2-methyl-6-(1-methyl-5-(((((S)-2-methyl-butoxy)carbonyl)amino)methyl)-1H-1,2,3-triazol-4-yl)pyridin-3-yl)oxy)methyl)cyclobutane carboxylic acid]	47
Cc1nc(-c2nnn(C)c2CNC(=O)OCC(C)CC(F)(F)F)ccc1OC[C@@H]1CC[C@H]1C(=O)O (mixture of isomers) [Example 44, (±)-(1R,2R)-2-(((2-methyl-6-(1-methyl-5-((((4,4,4-trifluoro-2-methylbutoxy)carbonyl)amino)methyl)-1H-1,2,3-triazol-4-yl)pyridin-3-yl)oxy)methyl)cyclobutane carboxylic acid]	103

Reference: patent US12466804B2 (BRISTOL-MYERS SQUIBB COMPANY, priority 2019, dated 2025)
